Each molecule was assayed against T1, IP receptor (Homo sapiens, UniProt P43119) (assay: cAMP accumulation in CHO cells stably expressing the IP receptor (CHO-IP), Perkin Elmer AlphaScreen assay). Conditions: agonist activity, 1 hour at room temperature.
T1 construct: expressed in transfected cells
Format: cell-based
Description: Activity of compounds at the IP receptor (IP receptor) is assessed by measuring cAMP accumulation in CHO cells stably expressing the IP receptor (CHO-IP) using the Perkin Elmer AlphaScreen assay. This technology measures the endogenous production of cAMP, in a non-radioactive luminescence proximity homogenous assay. A biological reaction occurs between streptavidin coated donor beads, biotinylated cAMP and anti-cAMP acceptor beads, bringing the donor and acceptor beads close enough together so that upon excitation a fluorescence signal is produced. On production of endogenous cAMP, competition between the biotinylated cAMP and cellular-derived cAMP causes a reduction in the fluorescent signal. The reduction in signal is proportional to the amount of cAMP being produced, thus it is possible to quantify the amount of cAMP being produced on stimulation with agonist.
Test and reference compounds are prepared at 100× [final] in 100% DMSO, and diluted 1:3 using a Biomek Fx (Beckman Coulter). This is followed by an intermediate dilution to give 5× [final] in assay buffer (HBSS containing 5 mM HEPES, 0.1% (w/v) BSA). 5 μL of 5× [final] test compounds, reference compounds and buffer/DMSO control are then transferred to a 384-well white OptiPlate, containing 20 μL CHO-IP cell suspension (15,000 cells/well, prepared from frozen), and plate is incubated at room temperature for 1 hour. A cAMP standard curve is constructed for each experiment (concentration range of 10000 nM to 0.001 nM, in assay buffer) and 25 μL of each concentration added to the last two columns of the assay plate. The incubation is terminated by the addition of lysis buffer (dH2O; 0.3% (v v^−1) Tween-20) containing 20 units mL^−1 streptavidin coated donor beads and biotinylated cAMP (pre-incubated for 30 minutes) and 20 units mL^−1 anti-cAMP acceptor beads, which are added to the lysis buffer just before addition to the assay plate. The assay plate is then incubated at room temperature in the dark, for 60 minutes with gentle shaking, and read on the Envision plate reader (Perkin Elmer).
The raw data of the reference compounds, test compounds and controls are converted into cAMP concentrations, using the cAMP standard curve, in GraphPadPrism (GraphPad Software Inc). EC50 as well as maximal values of the agonist curves are determined using a 4-parameter logistic equation. The % maximum response values of all test compounds are determined using the top of the treprostinil concentration-response curve.

T1 sequence (P43119 whole entry): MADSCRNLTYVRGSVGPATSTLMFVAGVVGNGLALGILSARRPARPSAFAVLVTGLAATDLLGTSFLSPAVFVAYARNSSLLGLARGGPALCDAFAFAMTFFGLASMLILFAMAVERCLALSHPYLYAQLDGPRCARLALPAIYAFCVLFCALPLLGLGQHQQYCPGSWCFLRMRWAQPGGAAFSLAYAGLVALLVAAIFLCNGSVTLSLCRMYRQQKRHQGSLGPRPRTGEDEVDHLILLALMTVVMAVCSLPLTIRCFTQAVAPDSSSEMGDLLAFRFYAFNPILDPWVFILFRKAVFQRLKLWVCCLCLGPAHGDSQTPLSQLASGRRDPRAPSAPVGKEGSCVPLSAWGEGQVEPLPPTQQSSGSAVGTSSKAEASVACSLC

Row | SMILES | EC50 [nM]
1 | Cc1ccc(-c2nc3c(nc2-c2ccc(C)cc2)N(CCCCC2SC(=O)NC2=O)CCC3)cc1 (single isomer, unassigned) [1(a), (S)-5-(4-(2,3-di-p-tolyl-7,8-dihydropyrido[2,3-b]pyrazin-5(6H)-yl)butyl)thiazolidine-2,4-dione or (R)-5-(4-(2,3-di-p-tolyl-7,8-dihydropyrido[2,3-b]pyrazin-5(6H)-yl)butyl)thiazolidine-2,4-dione] | 3.71
2 | Cc1ccc(-c2nc3c(nc2-c2ccc(C)cc2)N(CCCCCC2=C(O)CCC2=O)CCC3)cc1 [Example 3, 2-(5-(2,3-Di-p-tolyl-7,8-dihydropyrido[2,3-b]pyrazin-5(6H)-yl)pentyl)-3-hydroxycyclopent-2-enone] | 7.68
3 | Cc1ccc(-c2nc3c(nc2-c2ccc(C)cc2)N(CCCC/C=C2/SC(=O)NC2=O)CCC3)cc1 [Example 4, 5-(5-(2,3-Ddi-p-tolyl-7,8-dihydropyrido[2,3-b]pyrazin-5(6H)-yl)pentylidene)thiazolidine-2,4-dione] | 2
4 | Cc1ccc(-c2nc3c(nc2-c2ccc(C)cc2)N(CCCCC2=C(O)CCC2=O)CCC3)cc1 [Example 5, 2-(4-(2,3-Ddi-p-tolyl-7,8-dihydropyrido[2,3-b]pyrazin-5(6H)-yl)butyl)-3-hydroxycyclopent-2-enone] | 165
5 | Cc1ccc(-c2nc3c(nc2-c2ccc(C)cc2)N(CCCCC2CC(=O)NO2)CCC3)cc1 (centres unmarked) [Example 7, 5-(4-(2,3-Di-p-tolyl-7,8-dihydropyrido[2,3-b]pyrazin-5(6H)-yl)butyl)isoxazolidin-3-one] | 2.86
6 | Cc1ccc(-c2nc3c(nc2-c2ccc(C)cc2)N(CCCCc2cc(O)no2)CCC3)cc1 [Example 8, 5-(4-(2,3-Di-p-tolyl-7,8-dihydropyrido[2,3-b]pyrazin-5(6H)-yl)butyl)isoxazol-3-ol] | 34.3

Second part, the molecule after the results:

Row | EC50 [nM] | SMILES
7 | 8.91 | Cc1ccc(-c2nc3c(nc2-c2ccc(C)cc2)N(CCCCC2SC(=O)NC2=O)CCC3)cc1 (racemic) [Example 1, rac-5-(4-(2,3-Di-p-tolyl-7,8-dihydropyrido[2,3-b]pyrazin-5(6H)-yl)butyl)thiazolidine-2,4-dione]
8 | 12 | Cc1ccc(-c2nc3c(nc2-c2ccc(C)cc2)N(CCCCC2SC(=O)NC2=O)CCC3)cc1 (single isomer, unassigned) [1(b), (S)-5-(4-(2,3-di-p-tolyl-7,8-dihydropyrido[2,3-b]pyrazin-5(6H)-yl)butyl)thiazolidine-2,4-dione or (R)-5-(4-(2,3-di-p-tolyl-7,8-dihydropyrido[2,3-b]pyrazin-5(6H)-yl)butyl)thiazolidine-2,4-dione]
9 | 28.3 | Cc1ccc(-c2nc3c(nc2-c2ccc(C)cc2)N(CCCCCCc2noc(=O)[nH]2)CCC3)cc1 [Example 6, 3-(6-(2,3-Di-p-tolyl-7,8-dihydropyrido[2,3-b]pyrazin-5(6H)-yl)hexyl)-1,2,4-oxadiazol-5(4H)-one]
10 | 15.3 | Cc1ccc(-c2nc3c(nc2-c2ccc(C)cc2)N(CCCCCc2noc(=O)[nH]2)CCC3)cc1 [Example 6.1, 3-(5-(2,3-Di-p-tolyl-7,8-dihydropyrido[2,3-b]pyrazin-5(6H)-yl)pentyl)-1,2,4-oxadiazol-5(4H)-one]
11 | 14.7 | Cc1ccc(-c2nc3c(nc2-c2ccc(C)cc2)N(CCCCc2noc(=O)[nH]2)CCC3)cc1 [Example 6.2, 3-(4-(2,3-Di-p-tolyl-7,8-dihydropyrido[2,3-b]pyrazin-5(6H)-yl)butyl)-1,2,4-oxadiazol-5(4H)-one]

From patent publication US20140357641A1, “IP receptor agonist heterocyclic compounds” (NOVARTIS AG, priority 2012, published 2014)
